Oc1cccc(/C=N\NC(=S)NC2CCCCC2)c1
Settings	solubility (mole fraction)
in PEG-400, 298.15 K	0.071
in PEG-400, 308.15 K	0.0774
in PEG-400, 318.15 K	0.0845
in PEG-400, 328.15 K	0.0929
in PEG-400, 338.15 K	0.101

solubility (mole fraction)
Settings	in ethanol	in ethyl acetate	in ethylene glycol	in isopropanol	in propylene glycol	in transcutol	in water
298.15 K	0.0135	0.0104	0.00185	0.0302	0.0319	0.0938	3.9e-07
308.15 K	0.0141	0.0117	0.00225	0.0313	0.0332	0.0978	5.85e-07
318.15 K	0.0149	0.0132	0.0029	0.0323	0.0345	0.102	9.09e-07
328.15 K	0.0156	0.0147	0.00358	0.0335	0.036	0.106	1.36e-06
338.15 K	0.0164	0.0167	0.00454	0.0345	0.0376	0.111	1.88e-06
